# Reference: patent US6995177B1, “HCV NS3 protease inhibitors” (Istituto Di Ricerche Di Biologia Molecolare P Angeletti SPA, priority 1999, dated 2006)
# Biological target: HCV NS3 protease (Hepatitis C virus genotype 1b, UniProt P26662)
# Test: Microplate protease activity assay
# Assay type: biochemical, hepatitis C virus (J strain)
# Conditions: inhibition of HCV NS3 protease, co-factor Pep4AK, tritiated substrate
# Experimental: Microplate Protease Activity Assay
# The HCV-protease (J strain) was stored until use at −80° C. in 250 mM NaCl, phosphate buffer pH 6.5, 50% glycerol, 0.1% CHAPS. As protease co-factor the peptide Pep4AK (KKKGSVVIVGRIILSGR-NH2), spanning the central hydrophobic core (residues 21–34) of the NS4A protein, with a three-lysine tag at the N-terminus to increase solubility (Bianchi, E. et al., Biochemistry 36, 7890–7897;1997), was used. Pep4AK was stored at −80° C. in DMSO; the tritiated substrate Ac-DEMEECASHLPYK (^3H-Ac)-NH2, and the corresponding cold substrate Ac-DEMEECASHLPYK(Ac)-NH2 were stored at −80° C. in DMSO/DTT.
# The assay was run in Costar polypropylene 96-well plates. The composition of the reaction mixture was as follows (100 μl): • Glycerol 15% • DTT 30 mM • Hepes pH 7,5 50 mM • Triton X-100 0.05% • Protease 10 nM • hot+cold substrate 5 μM (300.000 cpm) • Pep4AK 15 μM
# Test compounds were dissolved—in DMSO (final concentration 10% DMSO)
# Pep4AK was pre-incubated with protease for 5 min prior to addition of substrate mix. In these conditions, the substrate Km was 7±2 μM. Test compounds were added at 8 different concentrations in 8 different wells. Plates were shaken for 30 minutes at room temperature, then an ionic exchange resin (100 μl of 20% Fractogel TSK-DEAE® 650S, Merck) was added to capture unprocessed substrate and plates shaken for another 10 minutes. After allowing the resin to settle by centrifugation, 30 μl of the reaction mix were transferred in a 96-well plate (Picoplate, Packard), admixed with 250 μl of scintillation cocktail Microscint 40, and the radioactivity measured in a scintillation Packard Top Count β-counter.
# IC50 was calculated from the test compound dilution curve, as the concentration of compound giving 50% inhibitions.
# Chain of HCV NS3 protease (P26662 1027-1206, other chains not shown): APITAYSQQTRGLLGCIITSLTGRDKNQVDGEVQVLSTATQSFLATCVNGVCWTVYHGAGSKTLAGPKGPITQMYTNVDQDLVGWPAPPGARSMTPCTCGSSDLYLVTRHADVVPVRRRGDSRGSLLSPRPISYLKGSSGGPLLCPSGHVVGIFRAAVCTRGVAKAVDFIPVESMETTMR
molecule,measurement,setting,value
"CC(C)C[C@H](NC(=O)[C@H](CC(=O)O)NC(=O)[C@H](CC1CCCCC1)NC(=O)[C@@H]1CCCC[C@H]1C(=O)O)C(N)=O (single isomer, unassigned) [Example 1, R1R-cyclohexane-1,2-dicarboxylate monoamide of Cha-Asp-Leu-NH2]",IC50,Table I,15 µM
"CC(C)CC(NC(=O)C(CC(=O)O)NC(=O)C(NC(=O)C1CCCCC1C(=O)O)c1cccc(OC(=O)CC(c2ccccc2)c2ccccc2)c1)C(N)=O (single isomer, unassigned) [Example 8]",IC50,Table II,13 µM
"O=C(O)CCN(CCC(c1ccccc1)c1ccccc1)C(=O)[C@@H](NC(=O)[C@@H]1CCCC[C@H]1C(=O)O)c1ccccc1 (single isomer, unassigned) [Example 19]",IC50,Table IV,14 µM
"CC(C)C[C@H](NC(=O)[C@H](CC(=O)O)NC(=O)[C@H](CC1CCCCC1)NC(=O)[C@H]1CCCC[C@@H]1C(=O)O)C(N)=O [Example 2, SS-cyclohexane-1,2-dicarboxylate monoamide of Cha-Asp-Leu-NH2]",IC50,Table I,54 µM
CCNC(=O)[C@H](CC(C)C)NC(=O)[C@H](CC(=O)O)NC(=O)[C@H](CC1CCCCC1)NC(=O)C1=C(C(=O)O)CCCC1 [Example 4],IC50,Table I,38 µM
CC(C)C[C@H](NC(=O)[C@H](CC(=O)O)NC(=O)[C@H](CC1CCCCC1)NC(=O)[C@@H]1CCC[C@H]1C(=O)O)C(N)=O [Example 5],IC50,Table I,60 µM
CC(C)C[C@H](NC(=O)[C@H](CC(=O)O)NC(=O)[C@H](CC1CCCCC1)NC(=O)c1ccccc1C(=O)O)C(N)=O [Example 6],IC50,Table I,64 µM
CCNC(=O)[C@H](CC(C)C)NC(=O)[C@H](CC(=O)O)NC(=O)[C@H](CC1CCCCC1)NC(=O)c1ccccc1C(=O)O [Example 7],IC50,Table I,64 µM
CC(C)C[C@H](NC(=O)[C@H](CC(=O)O)NC(=O)[C@@H](NC(=O)[C@@H]1CCCC[C@H]1C(=O)O)c1cccc(OC(=O)Cc2cccc3ccccc23)c1)C(N)=O [Example 9],IC50,Table II,22 µM
CC(C)C[C@H](NC(=O)[C@H](CC(=O)O)NC(=O)[C@@H](NC(=O)[C@@H]1CCCC[C@H]1C(=O)O)c1cccc(OC(=O)Cc2ccc3ccccc3c2)c1)C(N)=O [Example 10],IC50,Table II,22 µM
CC(C)C[C@H](NC(=O)[C@H](CC(=O)O)NC(=O)[C@@H](NC(=O)[C@@H]1CCCC[C@H]1C(=O)O)c1cccc(OC(=O)[C@@H]2CCCC[C@H]2C(=O)O)c1)C(N)=O [Example 11],IC50,Table II,35 µM
CC(C)C[C@H](NC(=O)[C@H](CC(=O)O)NC(=O)[C@@H](NC(=O)[C@@H]1CCCC[C@H]1C(=O)O)c1ccc(Cl)cc1)C(N)=O [Example 12],IC50,Table II,37 µM
CC(C)C[C@H](NC(=O)[C@H](CC(=O)O)NC(=O)[C@@H](NC(=O)[C@@H]1CCCC[C@H]1C(=O)O)c1ccccc1)C(N)=O [Example 13],IC50,Table II,40 µM
CC(C)C[C@H](NC(=O)[C@H](CC(=O)O)NC(=O)[C@@H](NC(=O)[C@@H]1CCCC[C@H]1C(=O)O)c1ccccc1F)C(N)=O [Example 14],IC50,Table II,47 µM
CC(C)C[C@H](NC(=O)[C@H](CC(=O)O)NC(=O)[C@@H](NC(=O)[C@@H]1CCCC[C@H]1C(=O)O)c1ccc(Br)cc1)C(N)=O [Example 15],IC50,Table II,26 µM
CC(C)C[C@H](NC(=O)[C@H](CCC(=O)O)NC(=O)[C@H](CC1CCCCC1)NC(=O)[C@@H]1CCCC[C@H]1C(=O)O)C(N)=O [Example 16],IC50,Table III,41 µM
CC(C)C[C@H](NC(=O)[C@H](CC(=O)O)N(C)C(=O)[C@H](CC1CCCCC1)NC(=O)[C@@H]1CCCC[C@H]1C(=O)O)C(N)=O [Example 17],IC50,Table III,100 µM
CC(C)C[C@H](NC(=O)[C@H](CC(=O)O)N(C)C(=O)[C@H](CC1CCCCC1)NC(=O)c1ccccc1C(=O)O)C(N)=O [Example 18],IC50,Table III,115 µM
O=C(O)CCN(CCC(c1ccccc1)c1ccccc1)C(=O)[C@H](CC1CCCCC1)NC(=O)[C@@H]1CCCC[C@H]1C(=O)O [Example 20],IC50,Table IV,55 µM
O=C(O)CCN(CCC(c1ccccc1)c1ccccc1)C(=O)[C@@H](NC(=O)[C@@H]1CCCC[C@H]1C(=O)O)c1ccc(Br)cc1 [Example 21],IC50,Table IV,1.7 µM
O=C(O)CCN(CCC(c1ccccc1)c1ccccc1)C(=O)[C@@H](NC(=O)[C@@H]1CCCC[C@H]1C(=O)O)c1ccc(C(F)(F)F)cc1 [Example 22],IC50,Table IV,7 µM
O=C(O)CCN(CCC(c1ccccc1)c1ccccc1)C(=O)[C@@H](NC(=O)[C@@H]1CCCC[C@H]1C(=O)O)c1ccccc1F [Example 23],IC50,Table IV,6 µM
CCOC(=O)CCN(CCC(c1ccccc1)c1ccccc1)C(=O)[C@@H](NC(=O)[C@H]1CCCC[C@@H]1C(=O)O)c1ccc(Br)cc1 [Example 24],IC50,Table IV,60 µM
NC(=O)CCN(CCC(c1ccccc1)c1ccccc1)C(=O)[C@@H](NC(=O)[C@H]1CCCC[C@@H]1C(=O)O)c1ccc(Br)cc1 [Example 25],IC50,Table IV,59 µM
COc1ccccc1CCN(CCC(=O)O)C(=O)[C@@H](NC(=O)[C@@H]1CCCC[C@H]1C(=O)O)c1ccccc1F [Example 26],IC50,Table IV,44 µM
COc1cccc(CCN(CCC(=O)O)C(=O)[C@@H](NC(=O)[C@@H]2CCCC[C@H]2C(=O)O)c2ccccc2F)c1 [Example 27],IC50,Table IV,66 µM
O=C(O)CCN(CCc1ccccc1Cl)C(=O)[C@@H](NC(=O)[C@@H]1CCCC[C@H]1C(=O)O)c1ccccc1F [Example 28],IC50,Table IV,70 µM
O=C(O)CCN(CC(c1ccccc1)c1ccccc1)C(=O)[C@@H](NC(=O)[C@@H]1CCCC[C@H]1C(=O)O)c1ccccc1 [Example 29],IC50,Table IV,39 µM
O=C(O)CCN(CCc1ccc(Cl)cc1Cl)C(=O)[C@@H](NC(=O)[C@@H]1CCCC[C@H]1C(=O)O)c1ccccc1 [Example 30],IC50,Table IV,49 µM
COc1ccc(CCN(CCC(=O)O)C(=O)[C@@H](NC(=O)[C@@H]2CCCC[C@H]2C(=O)O)c2ccccc2)cc1OC [Example 31],IC50,Table IV,123 µM
O=C(O)CCN(CC(c1ccccc1)c1ccccc1)C(=O)[C@H](CC1CCCCC1)NC(=O)[C@@H]1CCCC[C@H]1C(=O)O [Example 32],IC50,Table IV,133 µM
O=C(O)CCN(CCc1ccc(Cl)cc1Cl)C(=O)[C@H](CC1CCCCC1)NC(=O)[C@@H]1CCCC[C@H]1C(=O)O [Example 33],IC50,Table IV,177 µM
"S,S-cyclohexane-1,2-dicarboxylate monoamide of Cha-Asp-Leu-NHEt [Example 3]",IC50,Table I,32 µM
